Assay results: patent publication US20050153943A1, “Methods of simultaneously treating mucositis and fungal infection” (priority 2002, published 2005)
Values after ≈ are worked out from the molar mass of the structure shown. Where a name gives a salt, the structure may show the parent alone. Marks after values point to notes of the source that are not given here.

Columns and labels:
Aspergillus f. [1] = experiment: Direct comparison of CMT-3 and Amphotericin B, agar plates (Example 39); format: cell-based
Aspergillus f. [2] = experiment: as above; format: cell-based; remark: listed apart in the source
Description: The plates were prepared as described above, using […], 0.50, 1.00 and 2.00 concentrations of each of the drugs tested. DMSO was used as a control

[3] = tested on: 11 different species of fungi; experiment: Summary of Example 40 over the whole panel; format: cell-based; details: 11 tested fungi, up to 4.00 μg/ml
Description: (§1) Each drug was dissolved in DMSO (1.0 mg/ml) as a stock solution and stored at −20° C. Just prior to use, each stock solution was thawed and diluted in DMSO to produce 6 different 100× concentrations. Potato dextrose agar was dissolved in distilled water (39 g/L) and sterilized at […] (250° F.) for 15 min. The agar solution was mixed with each drug (in a water bath at 60° C.) to make a series of final concentrations, i.e. 0.00, 0.25, 0.50, 1.00, 2.00, 4.00 μg/ml. The mixtures were then transferred to 24-well plates (1 ml/well). After the gel had formed, the fungus in PBS (spore count=1-5×10^4/ml) was inoculated by pipetting 10 μl onto each gel. The plates were incubated at 30° C. for different times, depending on the requirement of each species, e.g. 24 hours for Penicillium, Rhizopus, Tricothecium, Ulocladium, Absidia, Aspergilus, Caindida, Cunninghamella, 3 days for Scedosporium, and 5 days for Fonsecae and Phialophora.
(§2) “*” indicates better than or similar results to Amphotericin B. “NI” indicates no detectable inhibition.

Penicillium spores = experiment: Fungistatic or fungicidal activity: pre-treatment of spores, dilution, regrowth on agar (Example 41); format: cell-based; details: for Growth rate of Penicillium in control cultures with low drug concentration: 0.01 and 0.05 μl/ml, no pre-treatment; for Type of antifungal activity (fungistatic or fungicidal): against Penicillium; for Growth of Penicillium on agar gels after pretreatment of spores: pretreatment with 10 and 50 μl/ml for 24 hours at 30° C., diluted 1000 times, 48 hours on agar
Description: In the pre-treatment phase of the experiment, Penicillium spores were suspended in PBS to achieve a spore count of 10^7/ml. CMT-3 and Amphotericin B were dissolved in DMSO to reach a concentration of 1.0 mg/ml as stock solutions. 10 or 50 μl aliquots of these stock solutions were added to the incubation mixture (containing 1.0 ml of 10^7/ml of Penicillium spores in PBS) to achieve a final concentration of 10 μg/ml or 50 μg/ml, respectively, for both drugs. The various incubations of Penicillium were carried out for 24 hours at 30° C.
After the pre-treatment phase, the reaction mixtures were diluted 1000 times with PBS, reducing the concentration of both drugs to 0.01 μg/ml or 0.05 μg/ml, and reducing the Penicillium spore count to 10^4/ml. These drug concentrations of both CMT-3 and Amphotericin B would not be expected to inhibit the growth of the viable Penicillium spores.
Controls were then prepared. Before incubation, each tube was either not diluted further, or diluted to ½ or ¼ with PBS to produce tubes with three different spore counts, ie, 10^4/ml, or 0.5×10^4/ml, or 0.25×10^4/ml. These cultures were then inoculated on potato dextrose agar gels in 24-well plates, and incubated at 30° C. for 48 hours to determine the rate of growth of the fungus as described before.
The controls were prepared from the suspension in the pre-treatment phase containing only Penicillium spores 10^7/ml, and PBS. This control was diluted by 1000 times with PBS to produce a spore count of 10^4/ml. 1.0 ml of this diluted spore suspension was added to eight tubes. The stock solutions of CMT-3 and Amphotericin B, and DMSO were also diluted by 1000 times with PBS (the new concentration being 1.0 μg/ml for both drugs and 0.1% for DMSO), and 10 or 50 μl of these solutions was added into the above tubes. The final concentrations in each tube was either 0.01 μg/ml or 0.05 μg/ml for both drugs (CMT-3 or AmB), or 0.001% or 0.005% for DMSO. These tubes were further treated as described above to determine the growth of the fungus as controls.

Ulocladium Species = experiment: IC50 and MIC on microplate agar gels (Example 40); format: cell-based; details: agar gel, 0.25-4.00 μg/ml, 30° C., 24 hours; NI = no detectable inhibition
Description: as §1, §2

Aspergilus Fumigatus = experiment: IC50 and MIC on microplate agar gels (Example 40); format: cell-based; details: agar gel, 0.25-4.00 μg/ml, 30° C., 24 hours; NI = no detectable inhibition
Description: as §1, §2

Fonsecae Species = experiment: IC50 and MIC on microplate agar gels (Example 40); format: cell-based; details: agar gel, 0.25-4.00 μg/ml, 30° C., 5 days; NI = no detectable inhibition
Description: as §1, §2

Scedosporium Apiospermum = experiment: IC50 and MIC on microplate agar gels (Example 40); format: cell-based; details: agar gel, 0.25-4.00 μg/ml, 30° C., 3 days; NI = no detectable inhibition
Description: as §1, §2

Candida Albicans = experiment: IC50 and MIC on microplate agar gels (Example 40); format: cell-based; details: agar gel, 0.25-4.00 μg/ml, 30° C., 24 hours; NI = no detectable inhibition
Description: as §1, §2

Penicillium Species = experiment: IC50 and MIC on microplate agar gels (Example 40); format: cell-based; details: agar gel, 0.25-4.00 μg/ml, 30° C., 24 hours; NI = no detectable inhibition
Description: as §1, §2

Absidia Species = experiment: IC50 and MIC on microplate agar gels (Example 40); format: cell-based; details: agar gel, 0.25-4.00 μg/ml, 30° C., 24 hours; NI = no detectable inhibition
Description: as §1, §2

Rhizopus Species = experiment: IC50 and MIC on microplate agar gels (Example 40); format: cell-based; details: agar gel, 0.25-4.00 μg/ml, 30° C., 24 hours; NI = no detectable inhibition
Description: as §1, §2

[4] = 250 mg every six hours over a twenty-four hour period; cited from earlier work
[5] = single dose of two 100 mg minocycline HCl tablets; cited from earlier work
[6] = tested on: eleven different species of fungi; details: cited from earlier work
[7] = Toxicity in vivo (statement); details: at 2.0 μg/ml concentration; unlike AmB
Rhizopus sp. = experiment: Fungal growth on SABHI agar containing CMT (Example 38); format: cell-based; details: 25 μg/ml agar, Example 38
Description: The following fungi were inoculated onto potato dextrose agar (PDA) from stock cultures and incubated aerobically at 30° C.: Aspergillus [NT] 1022, Penicillium sp. (laboratory isolate), Candida albicans, ATCC 14053, and Rhizopus sp. […] The conidia were suspended in 0.9% saline and the turbidity was adjusted to match a 0.5 MacFarland standard (equivalent to approximately 1.5×10^8 cells). Candida albicans was suspended in saline and adjusted to 0.5 MacFarland in a similar manner. These suspensions were diluted 1:100 in sterile 0.9% saline. SABHI Agar (Difco) pH 7.0 was prepared in 100 ml amounts and sterilized at 121° C. for 15 min. […] SABHI Agar plates of each CMT and SAHBI agar without CMT using dimethylsulphoxide (DMSO) as a control were inoculated with 10 μl of conidia suspension of Aspergillus fumigatus, Penicillium sp. and Rhizopus sp. and 10 μl suspension of Candida albicans prepared as described above. The plates were then incubated aerobically for 24 hour and for 48 hours at 30° C. The results are set forth in Table 1 (24 hr. incubation) and Table 2 (48 hr. incubation). [table]

Cunninghamella Species = experiment: IC50 and MIC on microplate agar gels (Example 40); format: cell-based; details: agar gel, 0.25-4.00 μg/ml, 30° C., 24 hours; NI = no detectable inhibition
Description: as §1, §2

Phialophora Verrucosa = experiment: IC50 and MIC on microplate agar gels (Example 40); format: cell-based; details: agar gel, 0.25-4.00 μg/ml, 30° C., 5 days; NI = no detectable inhibition
Description: as §1, §2

Tricothecium Species = experiment: IC50 and MIC on microplate agar gels (Example 40); format: cell-based; details: agar gel, 0.25-4.00 μg/ml, 30° C., 24 hours; NI = no detectable inhibition
Description: as §1, §2

| Compound | Growth grade at Conc. 0.25 μg/ml (Aspergillus f. [1]) | Growth grade at Conc. 0.125 μg/ml (Aspergillus f. [2]) | Growth grade at Conc. 0.50 μg/ml (Aspergillus f. [2]) | Fungal growth inhibited (Aspergillus f. [2]; 1.0 μg/ml) [%] | Fungal growth inhibited (Aspergillus f. [2]; 2.0 μg/ml) [%] | Growth grade at Conc. 2.00 μg/ml (Aspergillus f. [2]) | Antifungal activity over the panel (summary in words) [3] | Growth rate of Penicillium in control cultures with low drug concentration (Penicillium spores) | Type of antifungal activity (fungistatic or fungicidal) (Penicillium spores) | Growth of Penicillium on agar gels after pretreatment of spores (Penicillium spores) | IC50 (Ulocladium Species) [µg/mL] | MIC (Ulocladium Species) | IC50 (Aspergilus Fumigatus) [µg/mL] | MIC (Aspergilus Fumigatus) | IC50 (Fonsecae Species) [µg/mL] | MIC (Fonsecae Species) | IC50 (Scedosporium Apiospermum) [µg/mL] | MIC (Scedosporium Apiospermum) | IC50 (Candida Albicans) [µg/mL] | MIC (Candida Albicans) [µg/mL] | also measured |
| --- | --- | --- | --- | --- | --- | --- | --- | --- | --- | --- | --- | --- | --- | --- | --- | --- | --- | --- | --- | --- | --- |
| C[C@@H]1[C@H](O)[C@@H](C)/C=C/C=C/C=C/C=C/C=C/C=C/C=C/[C@H](O[C@@H]2O[C@H](C)[C@@H](O)[C@H](N)[C@@H]2O)C[C@@H]2O[C@](O)(C[C@@H](O)C[C@@H](O)[C@H](O)CC[C@@H](O)C[C@@H](O)CC(=O)O[C@H]1C)C[C@H](O)[C@H]2C(=O)O [AmB, Amphotericin B] | 2 (50% reduction in growth of colonies compared to control.) | 4 (Level of growth in the absence of anti-fungal agent (control).) | 1 (75% reduction in growth in colonies compared to control.) | 100 | 100 | 0 (complete inhibition of growth.) | the same or less antifungal activity than CMT-3 | did not inhibit the growth | fungistatic | same rate of growth as PBS and DMSO controls | 1.0 (≈ 1.08 µM) | 2.0 µg/mL (≈ 2.16 µM) | 0.8 (≈ 0.866 µM) | 2.0 µg/mL (≈ 2.16 µM) | 4.0 (≈ 4.33 µM) | >4.0 µg/mL | 4.0 (≈ 4.33 µM) | >4 µg/mL | 0.5 (≈ 0.541 µM) | 1.0 (≈ 1.08 µM) | Growth grade at Conc. 1.00 μg/ml (Aspergillus f. [2]; 1.00 μg/ml): 0 (complete inhibition of growth.); IC50 (Penicillium Species): 0.12 µg/mL (≈ 0.13 µM); MIC (Penicillium Species): 0.25 µg/mL (≈ 0.271 µM); IC50 (Absidia Species): 1.0 µg/mL (≈ 1.08 µM); MIC (Absidia Species): 4.0 µg/mL (≈ 4.33 µM); IC50 (Rhizopus Species): 0.4 µg/mL (≈ 0.433 µM); MIC (Rhizopus Species): 1.0 µg/mL (≈ 1.08 µM) |
| CN(C)[C@@H]1C(O)=C(C(N)=O)C(=O)[C@@]2(O)C(O)=C3C(=O)c4c(O)cccc4[C@@](C)(O)[C@H]3C[C@@H]12 [tetracycline HCl] | – | – | – | – | – | – | – | – | – | – | – | – | – | – | – | – | – | – | – | – | peak plasma concentration [4]: approximately 3 μg/ml |
| CN(C)c1ccc(O)c2c1C[C@H]1C[C@H]3[C@H](N(C)C)C(O)=C(C(N)=O)C(=O)[C@@]3(O)C(O)=C1C2=O [minocycline HCl] | – | – | – | – | – | – | – | – | – | – | – | – | – | – | – | – | – | – | – | – | average minocycline serum level [5]: 2.24 µg/mL |
| NC(=O)C1=C(O)C[C@@H]2C[C@@H]3Cc4cccc(O)c4C(=O)C3=C(O)[C@]2(O)C1=O [COL 3, 6-demethyl-6-deoxy-4-dedimethylaminotetracycline] | 2 (50% reduction in growth of colonies compared to control.) | 4 (Level of growth in the absence of anti-fungal agent (control).) | 1 (75% reduction in growth in colonies compared to control.) | 95 | 100 | 0 (complete inhibition of growth.) | effective on all 11 tested fungi | did not inhibit the growth | fungicidal | little or no growth | 0.25 (≈ 0.673 µM) | 1.0* μg/ml | 0.5 (≈ 1.35 µM) | 1.0* μg/ml | 1.0 (≈ 2.69 µM) | 4.0* μg/ml | 0.2 (≈ 0.539 µM) | 1.5* μg/ml | 1.0 (≈ 2.69 µM) | 2.0 (≈ 5.39 µM) | Anti-fungal activity in vitro (Lu et al.) [6]: anti-fungal activity with eight of the eleven species; Toxicity in vivo [7]: very little toxicity; Anti-fungal activity (summary in words) (Rhizopus sp.): inhibited; IC50 (Cunninghamella Species): 2.0 µg/mL (≈ 5.39 µM); MIC (Cunninghamella Species): 4.0* μg/ml; IC50 (Phialophora Verrucosa): 1.5 µg/mL (≈ 4.04 µM); MIC (Phialophora Verrucosa): 4.0* μg/ml; IC50 (Penicillium Species): 0.2 µg/mL (≈ 0.539 µM); MIC (Penicillium Species): 0.5 µg/mL (≈ 1.35 µM); IC50 (Absidia Species): 1.5 µg/mL (≈ 4.04 µM); MIC (Absidia Species): 4.0* μg/ml; IC50 (Rhizopus Species): 0.8 µg/mL (≈ 2.15 µM); MIC (Rhizopus Species): 2.0 µg/mL (≈ 5.39 µM); IC50 (Tricothecium Species): 0.2 µg/mL (≈ 0.539 µM); MIC (Tricothecium Species): 1.5* μg/ml |
